Data from patent publication US20230233545A1, “TREATMENT OF ATRIAL DYSFUNCTION” (MyoKardia, Inc., priority 2020, published 2023).

How the values were obtained:
[1] = test system: dogs with microembolization-induced heart failure; assay: Echocardiography/haemodynamics in dogs with microembolization-induced heart failure; type: in vivo, beagle dogs; details: 2-3 mg/kg orally, 5 hours post-treatment
From the text: Seven male beagle dogs underwent a modified serial coronary microembolization protocol to produce chronic LV dysfunction and HF (Geist et al., J Pharmacol Toxicol Methods (2019) 99:106595), as determined by both LV remodeling and decreases in LV ejection fraction (LVEF). A subset of animals (n=5) were also surgically implanted with a radio-telemetry transmitter (TL11M3-D70-PCTP; Data Sciences Int., MN, USA) to provide systemic arterial blood and LV pressures. The microembolization and instrumentation techniques employed have been previously validated (Hartman et al., JACC Basic Transl Sci. (2018) 3(5):625-38).
The effects of Compound I (at 2-3 mg/kg oral tablet; n=14) on LV/LA function and geometry, as well as systemic/ventricular haemodynamics, were examined by echocardiography in conscious, lightly sedated animals (butorphanol 0.25-0.5 mg/kg intravenous) before dosing (i.e., baseline) as well at 5 hours post-treatment.
In these experiments, 2D and 2D-guided M-mode echocardiographic (CX50; Philips Medical System, MA, USA) recordings of LV dimension, LA dimension (LAd) and aortic dimension (Aod), as well as LV volume estimates (Simpson's and Teichholz's methods), were obtained at end-systole/diastole in both short-axis (papillary-level) and/or apical/parasternal long-axis views. From these measurements, LV stroke volume (LVSV), cardiac output (CO), LV fractional shortening (LVFS), LV fractional area of shortening and LVEF, as well as the LAd/Aod ratio, were calculated. LV outflow tract (LVOT) blood velocity (via Doppler) was measured and the LVOT velocity−time integral (LVOT−VTI) calculated. In addition, maximal (end-systolic, LAmax) and minimal (end-diastolic, LAmin) LA volumes were measured using the bi-plane method; both LA emptying fraction (LAEF=100×[LAmax−LAmin]/LAmax) and LA functional index (LAFI=[LAEF×LVOT−VTI]/LAmax index) were calculated (Thomas et al., Eur J Echocardiogr (2008) 9(3):356-362). Diastolic trans-mitral peak flow velocities (E and A), mitral-annulus tissue velocities (e′, s′ and a′), and their ratios during early filling (E/e′), were recorded/used as indices of diastolic performance. In all cases, atrial and ventricular indexed volumes were calculated by normalizing to the estimated body surface area (0.101×[body weight in kg][…]), while reported data were derived by averaging at least three cardiac cycles. Finally, haemodynamic signals were digitally acquired (1000 Hz) and recorded continuously with a data acquisition/analysis system (IOX; EMKA Technologies). Heart rate (HR) and end-systolic and end-diastolic pressures, as well as the peak rates of pressure rise and decline (dP/dtmax and dP/dtmin, respectively), the contractility index (dP/dt/P at dP/dtmax), and the time constant of myocardial relaxation (tau1/2, time for 50% decay from dP/dtmin) were derived from the LV pressure signal. Systolic, diastolic and mean systemic blood pressures, as well as pulse pressures, were derived from the aortic pressure signal. Haemodynamic data were reported as the average over at least 1 minute (at steady state). In vivo data are presented as means (SD) in the text or as mean±SEM in the figures; mean differences between pre- and post-treatment values were evaluated via a two-tailed paired t-test with a significance level of 0.05 set a priori (GraphPad Prism, GraphPad Software Inc., CA, USA).

LA skinned muscle fibers = assay: Myocardial force generation, LA skinned muscle fibers (tension-pCa, stiffness); type: biochemical, Yucatan mini-pig; details: at 3 μM
Method: The ability of Compound I to increase myocardial force generation at a given Ca2+ concentration was evaluated using LA (n=6) and LV (n=6) skinned muscle fibers prepared from three different Yucatan mini-pig hearts. In short, as previously described, 3 hearts were harvested, rinsed and shipped in cold cardioplegia solution (Custodiol® HTK; Essential Pharmaceuticals, LLC, NC, USA). Upon receipt, LV (papillary) and LA muscle fibers were dissected at 4° C. in a high-relaxing solution (100 mM BES, 10 mM EGTA, 6.57 mM MgCl2, 10 mM creatine phosphate, 6.22 mM ATP, 41.89 mM Kprop, 2.5 μM pepstatin, 1 μM leupeptin, 50 μM PMSF, 5 mM NaN3, pH 7.0). Fiber bundles were cut and skinned (in a high-relaxing solution containing 1% Triton X-100), fitted with aluminum foil t-clips, and mounted on a mechanics apparatus (Aurora Scientific Inc., ON, Canada). Sarcomere length was set to 2.0 μm. Steady-state isometric tension and stiffness (via a 3% stretch over 250 ms) were measured at increasing concentrations of Ca^2+ (pCa 8.0 to 4.5, adjusted to maintain 180 mM ionic strength) twice, first in the absence (control, 1% DMSO) and then in the presence of Compound I (3 μM, 1% DMSO). […] Active and passive stiffness were calculated by measuring the slope of the early (Ca^2+ dependent) and late phases, respectively, of the tension response to the brief 3% stretches. […]

## Cn1cc(S(=O)(=O)[C@@](C)(F)C2CCN(C(=O)Nc3ccon3)CC2)c(C(F)F)n1 [Compound I, (R)-4-(1-((3-(difluoromethyl)-1-methyl-1H-pyrazol-4-yl)sulfonyl)-1-fluoroethyl)-N-(isoxazol-3-yl)piperidine-1-carboxamide]
[1]; SD ±0.2, baseline 3.4 (±0.2), p<0.05
  LVESD: 3.2 cm
[1]; SD ±0.3, baseline 1.6 (±0.2)
  E/A: 1.6
[1]; SD ±0.3, baseline 4.3 (±0.2)
  LVEDD: 4.3 cm
[1]; SD ±1.1, baseline 7.4 (±1.0)
  e′ (mitral annular velocity): 7.3 cm/s
[1]; SD ±1.3, baseline 4.0 (±1.2), p<0.05
  a′ (late peak mitral annular velocity): 5.4 cm/s
[1]; SD ±1.6, baseline 3.4 (±0.9), p<0.05
  CO (cardiac output, estimated): 4.1 L/min
[1]; SD ±3.6, baseline 19.6 (±2.7), p<0.05
  LVFS: 25.6%
[1]; SD ±4.4, baseline −13.5 (±4.4), p<0.05
  LVGCS (LV global circumferential strain): −17.3%
[1]; SD ±6, baseline 41 (±5), p<0.05
  LVEF: 51%
[1]; SD ±6.5, baseline 7.7 (±3.3), p<0.05
  LAFI (left atrial functional index): 15.2
[1]; SD ±6.9, baseline 20.4 (±4.4), p<0.05
  LAEF (left atrial emptying fraction): 31.1%
[1]; SD ±8, baseline 41 (±6)
  A (late peak wave velocity, mitral inflow): 46 cm/s
[1]; SD ±9.0, baseline 21.2 (±8.3), p<0.05
  LAmin Vol. index (LAminVi): 17.9 mL/m^2
[1]; SD ±9.7, baseline 26.7 (±9.7), p<0.05
  LAmax Vol. index: 25.1 mL/m^2
[1]; SD ±13, baseline 66 (±10)
  DBP (diastolic blood pressure): 72 mmHg
[1]; SD ±40, baseline 71 (±12)
  E (early trans-mitral peak wave velocity): 74 cm/s
[1]; baseline 178 (±24), p<0.05
  SET (systolic ejection time): 200 ms
[1]; mean, SD ±10.7, baseline 33.0 (±5.9), p<0.05
  LVSV (left ventricular stroke volume): 43.6 mL
[1]; n/u, SD ±1.2, baseline 9.7 (±1.9)
  E/e′: 10.2
[1]; telemetry subset, SD ±4, baseline 18 (±2)
  LVEDP (LV end-diastolic pressure): 16 mmHg
[1]; telemetry subset, SD ±10, baseline 110 (±10)
  SBP (systolic blood pressure): 119 mmHg
[1]; telemetry subset, SD ±50, baseline 108 (±45), p<0.05
  HR (heart rate): 99 bpm
LA skinned muscle fibers
  passive stiffness, atrial skinned fibers: without altering passive stiffness
LA skinned muscle fibers; data not shown
  maximal force-generation capability, atrial skinned fibers: without altering
